Test results taken from article PMC3790851, “Improved Mass Spectrometry Assay For Plasma Hepcidin: Detection and Characterization of a Novel Hepcidin Isoform” (PLoS ONE, 2013).

How the values were obtained:
[1] = Effect of solvent of hepcidin-25^+40 on loss of peptide and hepcidin-25 value assignment; type: physicochemical
Procedure: Heavy hepcidin-25^+40 (hepcidin-25^+40 Da; DTHF(^13C9,^15N)P(^13C5,^15N)I(^13C6,^15N)CI(^13C6,^15N) F(^13C9,^15N)CCG(^15N)CCHRSKCGMCCKT disulfide bridged) was obtained from Peptides International (Table 1). Note that due to an isotope content of 98% the actual mass is 1 Da less than the theoretical mass of this peptide. Freeze dried hepcidin-25^+40 was dissolved in H2O in accordance with the manual. An 0.1 nmol/L solution of hepcidin-25^+40 was aliquoted in 12 µL volumes in 200 µL polypropylene tubes and stored at −80°C until use.
As quantification of native hepcidin in a sample is related to the known concentration of the spiked internal standard, the absolute levels of measured hepcidin are highly dependent on the value assignment of the used internal standard. One determining factor concerns proper dissolvent of the lyophilized peptide and whether or not a substantial amount of the internal standard is lost by aggregation or sticking to laboratory plastics during its preparation. Therefore, we compared the effects of three different solvents to prepare hepcidin-25^+40 stock solutions on the measured hepcidin-25 concentration of a series of spiked blank serum samples to which known hepcidin-25 concentrations were added. […] This finding implicates that use of 5% phosphoric acid leads to loss of about 50% of the peptide, while this seems to be the case for about 15% of the peptide when water is used. […] Therefore, 20% acetonitrile was implemented as solvent for the internal standard in our standard operating procedure, which was used throughout the remainder of this study.
Figure 1 Effect on the solvent of hepcidin-25^+40 on hepcidin-25 linearity and value assignment. […] Linearity of measured hepcidin-25 was determined by the formulas: Y = 1.822X+0.097 (5% phosphoric acid); Y = 1.119X+0.494 (water); Y = 0.964X+0.069 (20% acn).

[2] = at least; cited from earlier work
Procedure: We conclude that hepcidin-25 results are not changed during 2 years of storage at −80°C, except for a possible small decrease upon freezing. However, after 2 years storage at −80°C, hepcidin results become less precise and individual measurements might become less reliable. Average results for a population may not be affected, but existing differences in hepcidin levels between groups, or correlations of hepcidin with other parameters might be more difficult to assess.

[3] = set-up: method as in PMID 22222553; conditions: serum, 12 healthy controls; cited from earlier work
[4] = serum, healthy controls; cited from earlier work
Text: We observed no differences between the various anticoagulants used. We observed, however, a small non significant decrease of hepcidin-25 upon freezing (e.g. for heparin samples at 7 days: total intensive care and control (n = 15): 95% (CV 8%) relative to fresh samples, Table S3). […] However, it should be noted that the reproducibility of the measurements of the smaller isoforms at low concentrations is low, especially the measurements of hepcidin-20 in EDTA plasma samples (Table 2, Table S3). Thus, hepcidin measurements by WCX-TOF MS are no ...

Substance	loss of peptide on dissolution in 5% phosphoric acid ([1]; inferred from false high measured hepcidin-25 in spiked blank serum)	loss of peptide on dissolution in water ([1]; inferred from measured hepcidin-25 in spiked blank serum)	measured to nominal hepcidin-25 ratio, internal standard in 20% acetonitril ([1]; spiked blank serum)	stability at -80°C [2]	stability at 4°C [3] [days]	stability at -20°C [4] [days]
DTHF(^13C9,^15N)P(^13C5,^15N)I(^13C6,^15N)CI(^13C6,^15N) F(^13C9,^15N)CCG(^15N)CCHRSKCGMCCKT disulfide bridged (disulfide) [Hepcidin-25^+40, novel custom made heavy hepcidin-25 isotope, disulfide bridged, internal standard]	about 50%	about 15%	near 1∶1 ratio			
hepcidin: hepcidin as measured in plasma or serum, isoform not specified at the place				6–8 months	6	≥ 42
